Where a name gives a salt, the structure may show the parent alone.

The record followed here is patent US4258043A, “Pyrazino-carbazoles, process for the production thereof and pharmaceutical agents” (Cassella Aktiengesellschaft, priority 1979, dated 1981).

The test system of series [1] is Tetrabenazine. Put plainly: animal or person. In kind it is in vivo. The conditions noted are these: read-out: ED50 Tetrabenazine Antagonism.
Series [2] can be described thus: LD50 (acute toxicity). The conditions noted are these: in vivo.
A short description of series [3]: in vivo. In kind it is in vivo. The conditions noted are these: in vivo; ratio of LD50 to ED50 tetrabenazine antagonism (head is a drawing); read-out: Dosage [drawing 7].

In the case of `Cc1ccc2c(c1)c1c3n2CCNC3CCC1.Cl` (centres unmarked) [8-methyl-2,3,3a,4,5,6-hexahydro-1H-pyrazino[3,2,1-jk]carbazole-hydrochloride, reference compound], the ED50 in series [1] was determined as 14 mg/kg. The LD50 in series [2] is 122 mg/kg.

Regarding `Cc1ccc2c(c1)c1c3n2CCN=C3CCC1` [Example 1, 8-methyl-2,4,5,6-tetrahydro-1H-pyrazino[3,2,1-jk]carbazole], the 50% effective dose (ED50) in series [1] was 4 mg/kg. Moreover, in series [3], the selectivity ratio was 18. Moreover, the median lethal dose (LD50) in series [2] came to 72 mg/kg.

Turning to `COc1ccc2c(c1)c1c3n2CCN=C3CCC1` [Example 2, 8-methoxy-2,4,5,6-tetrahydro-1H-pyrazino[3,2,1-jk] carbazole-hydrochlorides], the ED50 in series [1] is 2 mg/kg. Also, in series [3], the selectivity ratio turned out to be 18.5. This molecule also displayed an LD50 in series [2] of 37 mg/kg.
